In patent US20050176649A1, “Iap binding peptides and assays for identifying compounds that bind iap” (priority 2001, published 2005):
Non-standard residues stand in square brackets, D forms with d. Residues, ends and D or L forms follow the SMILES beside them. ξ: configuration not given here. NMeF = CN[C@@H](Cc1ccccc1)C(=O)O; NMeV = CN[C@H](C(=O)O)C(C)C; ξAbu = CCC(N)C(=O)O

How the values were obtained:
[1] = target: T1, BIR3 domain of XIAP (recombinant XIAP-BIR3, residues 238-358) (Homo sapiens, UniProt P98170); test: Fluorescence-based competition assay of tetrapeptide libraries (Example 1); assay type: binding, mammalian
T1 construct: Recombinant XIAP-BIR3 (residues 238-358); GST (N, cleaved yes); made in house; host or cells: E. coli
Source text: Expression and Purification of BIR3. […] The soluble fraction of the GST-BIR3 in the E. coli lysate was purified over a glutathione sepharose column, and further purified by anion exchange chromatography (Mono-Q, Amersham Biosciences). The fusion protein was cleaved by thrombin, and the GST portion was removed by the glutathione sepharose column. The BIR3 protein was further purified over a gel filtration column (Superdex 30, Amersham Biosciences).
Fluorescence Experiments. Luminescence spectra were recorded using a Photon Technologies, Inc. fluorometer with a Xe arc lamp and a PMT detector. […] The buffer used in all of the fluorescence experiments was 50 mM potassium phosphate, 100 mM NaCl, 2 mM 1,4-dithio-DL-threitol (DTT), pH 7.
Assay of Tetrapeptide Libraries. The samples were prepared in a 96 well plate lined with glass tubes, to prevent adsorption of the dye to plastic. The plate was stored on ice in the dark between measurements. […] 390 μL of this stock solution were added to 50 wells of the 96 well plate. 50 μL of the test tetrapeptide solutions were added and mixed immediately prior to taking the emission spectra. The final solutions were 5 μM in both badan and BIR3, and approximately 20-30 μM in the tetrapeptide solutions. […] 50 μL of water was added to these wells, again as controls, to determine the intensity of the unbound dye.
The binding of various tetrapeptide mimics to the BIR3 domain of XIAP was determined using a fluorescence-based competition assay. The assay is based on an environment-sensitive fluorogenic dye molecule, badan. Badan is a dye whose sensitivity to environmental changes has previously been used to probe protein binding interactions. […] As the dye is displaced from the binding pocket by the test molecule, the emission shifts back towards the aquated spectrum.

[2] = target: T2, BIR3 domain of XIAP (Homo sapiens, UniProt P98170); test: Fluorescence displacement assay: AVPC-badan displaced from BIR3 by test tetrapeptide (typical assay, Tables 1 and 2); assay type: binding, mammalian; conditions: for K: binding (equilibrium) constant for displacement of AVP-dye, position-4 library, 5 μM dye and protein, larger = greater affinity; for Intensity (470 nm): emission intensity of AVPC-badan with BIR3 and test tetrapeptide, excitation 387 nm, lower = more dye displaced; for Fraction free: fraction of AVPC-badan free (displaced from BIR3), from intensity at 470 nm; for Krelative: relative equilibrium constant for displacement of AVP-dye, larger = greater affinity for BIR3
T2 construct: Recombinant XIAP-BIR3 (residues 238-358); GST (N, cleaved yes); made in house; host or cells: E. coli
Source text: The ability to quickly assay small molecules for their effectiveness in disrupting protein-protein interactions is critical to the development of viable drug candidates. One aspect of the present invention comprises an assay to test the binding affinity of a library of tetrapeptide molecules for the BIR3 domain of an inhibitor of apoptosis protein (LAP), particularly the mammalian XIAP. The assay is based on a detectable label, preferably a fluorogenic dye molecule. In preferred embodiments, the fluorophore is attached to a tripeptide, AVP, whose sequence matches the N-terminal three residues of Smac. The general structure of this molecule, therefore, is AVP[X], wherein X is the fluorophore. The molecule is referred to herein as an “AVP-dye”. The AVP-dye packs into the groove of the BIR3, causing a large shift in emission maximum and intensity when the environment of the dye changes from water to the hydrophobic pocket of the protein. If a molecule (e.g. the native Smac protein or a tetrapeptide mimic) displaces the dye, then emission will shift back to the spectrum observed in water. Since the emission intensity is related to the binding of the tetrapeptide, the intensity can be used to estimate the equilibrium constant, K, for displacement of the AVP-dye by the tetrapeptide. The larger the equilibrium constant, the greater affinity the tetrapeptide has for the BIR3.
The aforementioned AVP-dye is used in an assay of test compounds that may, like the Smac tetrapeptide AVPI, bind to the BIR3 domain of XIAP, thereby relieving XIAP-mediated suppression of apoptosis. This is a high-throughput, cell-free assay, that is assembled as follows. A protein comprising the BIR3 domain of an IAP is placed in an assay medium comprising a suitable buffer, as described above. Preferably, this is a recombinant protein comprising the BIR3 domain, but a full IAP protein also may be used. An aliquot of the AVP-dye is added to the reaction mixture, in the presence of the test compound. Controls comprise the BIR3 and the dye in the absence of the test compound and, optionally, BIR3 and the dye in the presence of the naturally occurring tetrapeptide, AVPI. […] Alternatively, a emission spectrum is measured at the selected excitation wavelength. In one type of measurement, the test compound is added and an emission spectrum is measured by scanning from, e.g., 460-480 nm. In another type of measurement, the emission intensity at a particular wavelength, e.g., 470 nm, is measured. […] Thus, the binding affinity of the test compound may be calculated as a function of its ability to displace the dye from the BIR3 domain, according to the following calculation: [formula]
Stock solution of badan, BIR3, and buffer were mixed: 2.5 ml of badan, 1.75 ml BIR3, and 15.25 ml of buffer were mixed in a glass vial which had been chilled to 4° C. Added 390 μL of the stock solution to 50 wells in the pre-chilled 96 well plate (wells A1-E2).
Stock solution of badan and buffer were mixed: 150 μL badan and 1020 μL of buffer were mixed in a small glass vial (also chilled) and added to 3 wells on the plate in 390 μL aliquots (F1-F3).
The 96 well plate was stored over ice in an insulated bucket while the emission spectra of the samples were taken. Fifty μL of the appropriate test solution (or water, for the control experiments) was added with a micropipet, the solution mixed with a Pasteur pipet before adding the sample to the fluorescence cuvette. While one sample was being scanned, the cuvette from the previous scan was washed with EtOH and then next sample was prepared.

T2 sequence (P98170 238-358): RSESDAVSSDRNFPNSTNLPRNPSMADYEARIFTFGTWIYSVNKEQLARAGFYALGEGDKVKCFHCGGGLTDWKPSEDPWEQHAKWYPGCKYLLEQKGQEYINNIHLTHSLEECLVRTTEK
T1 sequence (P98170 238-358): as above

Structure (SMILES)	Kd [1]	also measured
CC(C)[C@H](NC(=O)[C@H](C)N)C(=O)N1CCC[C@H]1C(=O)N[C@@H](Cc1ccc(O)cc1)C(N)=O [AVPY] (H-AVPY-NH2; N-terminus and C-terminus assumed)	0.3 µM	K [2]: 1.1692; Intensity (470 nm) [2]: 39093; Fraction free [2]: 0.8657
CC[C@H](C)[C@@H](C(N)=O)N(C)C(=O)[C@@H]1CCCN1C(=O)[C@@H](NC(=O)[C@H](C)N)C(C)C [AVP(N-Me)I]	174 µM	–
CC(C)[C@H](NC(=O)[C@H](C)N)C(=O)N1CCC[C@H]1C(=O)N[C@@H](Cc1c[nH]c2ccccc12)C(N)=O [AVPW] (H-AVPW-NH2; N-terminus and C-terminus assumed)	0.11 µM	K [2]: 1.0817; Intensity (470 nm) [2]: 23435; Fraction free [2]: 0.9418
CC[C@H](C)[C@H](NC(=O)[C@@H]1CCCN1C(=O)[C@H](CC(C)C)NC(=O)[C@H](C)N)C(N)=O [ALPI] (H-ALPI-NH2; N-terminus and C-terminus assumed)	–	Intensity (470 nm) [2]: 38650; Fraction free [2]: 0.8679; Krelative [2]: 3.5812
CC[C@H](C)[C@H](NC(=O)[C@@H]1CCCN1C(=O)[C@H](CCC(=O)O)NC(=O)[C@H](C)N)C(N)=O [AEPI] (H-AEPI-NH2; N-terminus and C-terminus assumed)	2.7 µM	–
CCC(N)C(=O)N[C@H](C(=O)N1CCC[C@H]1C(=O)N[C@H](C(N)=O)[C@@H](C)CC)C(C)C (stereo partly shown) [AbuVPI] (H-[ξAbu]VPI-NH2; N-terminus and C-terminus assumed)	–	Intensity (470 nm) [2]: 34770; Fraction free [2]: 0.8867
CC(C)[C@H](NC(=O)[C@H](C)N)C(=O)N1CCC[C@H]1C(=O)N[C@@H](CC(N)=O)C(N)=O [AVPN] (H-AVPN-NH2)	> 100 µM	–
CC[C@H](C)[C@H](NC(=O)[C@@H]1CCCN1C(=O)[C@H](C(C)C)N(C)C(=O)[C@H](C)N)C(N)=O [A(N-Me)VPI]	257 µM	–
CC(C)[C@H](NC(=O)[C@H](C)N)C(=O)N[C@@H](C)C(=O)N[C@@H](Cc1ccccc1)C(N)=O [AVAF]	0.56 µM	–
CC[C@H](C)[C@H](NC(=O)[C@@H]1CCCN1C(=O)[C@@H](NC(=O)CN)C(C)C)C(N)=O [GVPI] (H-GVPI-NH2; N-terminus and C-terminus assumed)	9 µM	–
CC[C@H](C)[C@H](NC(=O)[C@@H]1CCCN1C(=O)[C@@H](NC(=O)[C@H](C)N)[C@@H](C)CC)C(N)=O [AIPI] (H-AIPI-NH2; N-terminus and C-terminus assumed)	–	Intensity (470 nm) [2]: 44902; Fraction free [2]: 0.8375; Krelative [2]: 2.6613
CC[C@H](C)[C@H](NC(=O)[C@@H]1CCCN1C(=O)[C@H](C)NC(=O)[C@H](C)N)C(N)=O [AAPI] (H-AAPI-NH2; N-terminus and C-terminus assumed)	2.8 µM	–
CC(C)[C@H](NC(=O)[C@H](C)N)C(=O)N1CCC[C@H]1C(=O)N(C)[C@@H](Cc1ccccc1)C(N)=O [AVP(N-Me)F] (H-AVP[NMeF]-NH2; N-terminus and C-terminus assumed)	0.89 µM	–
CC[C@H](C)[C@H](NC(=O)[C@@H]1CCCN1C(=O)[C@@H]1CCCN1C(=O)[C@H](C)N)C(N)=O [APPI] (H-APPI-NH2)	> 100 µM	–

Further lines, with some results ahead:

Kd [1]	Structure (SMILES)	also measured
> 100 µM	CC(C)[C@H](NC(=O)[C@H](C)N)C(=O)N1CCC[C@H]1C(=O)N[C@@H](CCC(N)=O)C(N)=O [AVPQ] (H-AVPQ-NH2)	–
4.4 µM	CC(C)[C@H](NC(=O)[C@H](C)N)C(=O)N1CCC[C@H]1C(=O)N[C@@H](CO)C(N)=O [AVPS] (H-AVPS-NH2; N-terminus and C-terminus assumed)	K [2]: 0.01304
28 µM	CC(C)[C@H](NC(=O)[C@H](C)N)C(=O)N1CCC[C@H]1C(=O)N[C@@H](CCCCN)C(N)=O [AVPK] (H-AVPK-NH2; N-terminus and C-terminus assumed)	K [2]: 0.00702
2.1 µM	CC(C)[C@H](NC(=O)[C@H](C)N)C(=O)N1CCC[C@H]1C(=O)N[C@H](C(N)=O)[C@@H](C)O [AVPT] (H-AVPT-NH2; N-terminus and C-terminus assumed)	K [2]: 0.143
91 µM	CC(C)[C@@H](C(=O)N1CCC[C@H]1C(=O)N(C)[C@@H](Cc1ccccc1)C(N)=O)N(C)C(=O)[C@H](C)N [A(N-Me)VP(N-Me)F] (H-A[NMeV]P[NMeF]-NH2; N-terminus and C-terminus assumed)	–
1.5 µM	CC[C@H](C)[C@H](NC(=O)[C@@H]1CCCN1C(=O)[C@H](CC(N)=O)NC(=O)[C@H](C)N)C(N)=O [ANPI] (H-ANPI-NH2; N-terminus and C-terminus assumed)	–
190 µM	CC[C@H](C)[C@@H](C(N)=O)N(C)C(=O)[C@@H]1CCCN1C(=O)[C@H](CCCNC(=N)N)NC(=O)[C@H](C)N [ARP(N-Me)I]	–
46 µM	CC[C@H](C)[C@H](NC(=O)[C@@H]1CCCN1C(=O)CNC(=O)[C@H](C)N)C(N)=O [AGPI] (H-AGPI-NH2; N-terminus and C-terminus assumed)	–
0.99 µM	CC[C@H](C)[C@H](NC(=O)[C@@H]1CCCN1C(=O)[C@H](Cc1c[nH]c2ccccc12)NC(=O)[C@H](C)N)C(N)=O [AWPI] (H-AWPI-NH2; N-terminus and C-terminus assumed)	–
27 µM	CC[C@H](C)[C@H](NC(=O)[C@@H]1CCCN1C(=O)[C@@H](NC(=O)[C@@H](N)CO)C(C)C)C(N)=O [SVPI]	–
17 µM	CC[C@H](C)[C@H](NC(=O)[C@@H]1CCCN1C(=O)[C@H](CC(=O)O)NC(=O)[C@H](C)N)C(N)=O [ADPI] (H-ADPI-NH2; N-terminus and C-terminus assumed)	–
1.2 µM	CC[C@H](C)[C@H](NC(=O)[C@@H]1CCCN1C(=O)[C@@H](NC(=O)[C@H](C)N)[C@@H](C)O)C(N)=O [ATPI] (H-ATPI-NH2; N-terminus and C-terminus assumed)	–
83 µM	CC(C)[C@@H](C(=O)N1CCC[C@H]1C(=O)N[C@@H](Cc1ccccc1)C(N)=O)N(C)C(=O)[C@H](C)N [A(N-Me)VPF]	–
0.71 µM	C[C@H](N)C(=O)N[C@@H](CCCNC(=N)N)C(=O)N1CCC[C@H]1C(=O)N(C)[C@@H](Cc1ccccc1)C(N)=O [ARP(N-Me)F] (H-ARP[NMeF]-NH2; N-terminus and C-terminus assumed)	–
1.4 µM	CC[C@H](C)[C@H](NC(=O)[C@@H]1CCCN1C(=O)[C@H](CO)NC(=O)[C@H](C)N)C(N)=O [ASPI] (H-ASPI-NH2; N-terminus and C-terminus assumed)	–
